Assay results reported in PubChem BioAssay AID1963972 (Molecular Pharmacology Branch, DTP, NCI, 2024).
“And” between values parts separate entries of the source, which are not always exact repeats. Equal entries are not always repeated.

Test system: 945468-187-T-J2-PDC spheroids viability
Test: Anticancer human tumor 945468-187-T-J2-PDC patient-derived rectal carcinoma cell line growth inhibition [PI3K]
Conditions: spheroids with HUVEC and MSC; for viability, T/C: stronger effect = lower value; active = viability on the fitted dose curve at most 10% of control; inactive = the rest
Summary of the method: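 Spheroid viability read-out. Co-cultures contained the tumor line plus HUVEC and human MSCs. Each agent was paired with a PI3K inhibitor (inavolisib, alpelisib, duvelisib, copanlisib) across half-log dilutions starting at clinical Cmax, or at 10 microM when Cmax was unknown.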

[1] = curve of first compound, second compound 0.0316 µM
[2] = curve of first compound, second compound 0.1 µM
[3] = curve of first compound, second compound 0.316 µM
[4] = curve of first compound, second compound 1 µM
[5] = curve of first compound, second compound 3.16 µM
[6] = curve of first compound, second compound 10 µM
[7] = second compound 0.0316 µM, first compound 0.0316 µM
[8] = second compound 0.0316 µM, first compound 0.1 µM
[9] = second compound 0.0316 µM, first compound 0.316 µM
[10] = second compound 0.0316 µM, first compound 1 µM
[11] = second compound 0.1 µM, first compound 0.0316 µM
[12] = second compound 0.1 µM, first compound 0.1 µM
[13] = second compound 0.1 µM, first compound 0.316 µM
[14] = second compound 0.1 µM, first compound 1 µM
[15] = second compound 0.316 µM, first compound 0.0316 µM
[16] = second compound 0.316 µM, first compound 0.1 µM
[17] = second compound 0.316 µM, first compound 0.316 µM
[18] = second compound 0.316 µM, first compound 1 µM
[19] = second compound 1 µM, first compound 0.0316 µM
[20] = second compound 1 µM, first compound 0.1 µM
[21] = second compound 1 µM, first compound 0.316 µM
[22] = second compound 1 µM, first compound 1 µM
[23] = second compound 3.16 µM, first compound 0.0316 µM
[24] = second compound 3.16 µM, first compound 0.1 µM
[25] = second compound 3.16 µM, first compound 0.316 µM
[26] = second compound 3.16 µM, first compound 1 µM
[27] = second compound 10 µM, first compound 0.0316 µM
[28] = second compound 10 µM, first compound 0.1 µM
[29] = second compound 10 µM, first compound 0.316 µM
[30] = second compound 10 µM, first compound 1 µM
[31] = second compound 0.0316 µM, first compound 3.16 µM
[32] = second compound 0.0316 µM, first compound 10 µM
[33] = second compound 0.1 µM, first compound 3.16 µM
[34] = second compound 0.1 µM, first compound 10 µM
[35] = second compound 0.316 µM, first compound 3.16 µM
[36] = second compound 0.316 µM, first compound 10 µM
[37] = second compound 1 µM, first compound 3.16 µM
[38] = second compound 1 µM, first compound 10 µM
[39] = second compound 3.16 µM, first compound 3.16 µM
[40] = second compound 3.16 µM, first compound 10 µM
[41] = second compound 10 µM, first compound 3.16 µM
[42] = second compound 10 µM, first compound 10 µM
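Also: spheroids exposed to compounds for seven days before reading.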

CCN1CCN(Cc2ccc(Nc3ncc(F)c(-c4cc(F)c5nc(C)n(C(C)C)c5c4)n3)nc2)CC1 + CC(Nc1ncnc2nc[nH]c12)c1cc2cccc(Cl)c2c(=O)n1-c1ccccc1
inactive: viability, T/C (second compound 0.0316 µM, first compound 0.00316 µM) 91.3% | viability, T/C (second compound 0.0316 µM, first compound 0.01 µM) 103% | viability, T/C [7] 98.8% | viability, T/C [8] 92.9% | viability, T/C [9] 100% | viability, T/C [10] 79.7% | viability, T/C (second compound 0.1 µM, first compound 0.00316 µM) 93.5% | viability, T/C (second compound 0.1 µM, first compound 0.01 µM) 122% | viability, T/C [11] 118% | viability, T/C [12] 89.5% | viability, T/C [13] 84.2% | viability, T/C [14] 71.6% | viability, T/C (second compound 0.316 µM, first compound 0.00316 µM) 83.9% | viability, T/C (second compound 0.316 µM, first compound 0.01 µM) 76.9% | viability, T/C [15] 86% | viability, T/C [16] 84.1% | viability, T/C [17] 95.8% | viability, T/C [18] 67% | viability, T/C (second compound 1 µM, first compound 0.00316 µM) 120% | viability, T/C (second compound 1 µM, first compound 0.01 µM) 98% | viability, T/C [19] 85.4% | viability, T/C [20] 87.8% | viability, T/C [21] 88.7% | viability, T/C [22] 74.2% | viability, T/C (second compound 3.16 µM, first compound 0.00316 µM) 90.8% | viability, T/C (second compound 3.16 µM, first compound 0.01 µM) 98.8% | viability, T/C [23] 94.2% | viability, T/C [24] 87.2% | viability, T/C [25] 77.8% | viability, T/C [26] 59.5% | viability, T/C (second compound 10 µM, first compound 0.00316 µM) 81.5% | viability, T/C (second compound 10 µM, first compound 0.01 µM) 76.4% | viability, T/C [27] 104% | viability, T/C [28] 98.8% | viability, T/C [29] 95% | viability, T/C [30] 53.6%
> 1 µM: IC50 [1] | IC50 [2] | IC50 [3] | IC50 [4] | IC50 [5] | IC50 [6]

Cn1nccc1Nc1nccc(-c2ccn(C(CO)c3ccc(Cl)c(F)c3)c(=O)c2)n1 (stereo not drawn) + Cc1nc(NC(=O)N2CCCC2C(N)=O)sc1-c1ccnc(C(C)(C)C(F)(F)F)c1
> 10 µM: IC50 [1] | IC50 [2] | IC50 [3] | IC50 [4] | IC50 [5] | IC50 [6]
inactive: viability, T/C [7] 107% | viability, T/C [8] 116% | viability, T/C [9] 88.5% | viability, T/C [10] 79.3% | viability, T/C [31] 103% | viability, T/C [32] 72.8% | viability, T/C [11] 112% | viability, T/C [12] 110% | viability, T/C [13] 108% | viability, T/C [14] 105% | viability, T/C [33] 87.4% | viability, T/C [34] 82.1% | viability, T/C [15] 129% | viability, T/C [16] 107% | viability, T/C [17] 98.1% | viability, T/C [18] 89.2% | viability, T/C [35] 105% | viability, T/C [36] 80.7% | viability, T/C [19] 118% | viability, T/C [20] 108% | viability, T/C [21] 104% | viability, T/C [22] 119% | viability, T/C [37] 85.2% | viability, T/C [38] 74.8% | viability, T/C [23] 85.9% | viability, T/C [24] 119% | viability, T/C [25] 85.6% | viability, T/C [26] 82.8% | viability, T/C [39] 79.7% | viability, T/C [40] 88.5% | viability, T/C [27] 76.8% | viability, T/C [28] 98.3% | viability, T/C [29] 71.1% | viability, T/C [30] 86.9% | viability, T/C [41] 88% | viability, T/C [42] 72.4%

CCCS(=O)(=O)Nc1ccc(F)c(C(=O)c2c[nH]c3ncc(-c4ccc(Cl)cc4)cc23)c1F + CC(Nc1ncnc2nc[nH]c12)c1cc2cccc(Cl)c2c(=O)n1-c1ccccc1
5.63 µM: IC50 [6]
inactive: viability, T/C [7] 105% | viability, T/C [8] 103% | viability, T/C [9] 104% | viability, T/C [10] 89.2% | viability, T/C [31] 73.4% | viability, T/C [11] 132% | viability, T/C [12] 83.2% | viability, T/C [13] 89% | viability, T/C [14] 93.8% | viability, T/C [33] 83.8% | viability, T/C [15] 107% | viability, T/C [16] 110% | viability, T/C [17] 85.2% | viability, T/C [18] 107% | viability, T/C [35] 89.6% | viability, T/C [19] 104% | viability, T/C [20] 99.2% | viability, T/C [21] 93% | viability, T/C [22] 99.6% | viability, T/C [37] 108% | viability, T/C [23] 98.6% | viability, T/C [24] 106% | viability, T/C [25] 100% | viability, T/C [26] 98.8% | viability, T/C [39] 113% | viability, T/C [27] 98.2% | viability, T/C [28] 93.9% | viability, T/C [29] 101% | viability, T/C [30] 95.6% | viability, T/C [41] 93.5%
active: viability, T/C [32] 2.78% | viability, T/C [34] 4.23% | viability, T/C [36] 4.32% | viability, T/C [38] 4.79% | viability, T/C [40] 5.45% | viability, T/C [42] 6.8%
4.52 µM: IC50 [1]
5.4 µM: IC50 [3]
5.03 µM: IC50 [2]
5.92 µM: IC50 [5]
5.82 µM: IC50 [4]

CC(Nc1ccc2c(c1)OCCn1cc(N3C(=O)OCC3C(F)F)nc1-2)C(N)=O (stereo not drawn)
inactive: viability, T/C (compound 0.01 µM) 99% [middle of 8 runs] | viability, T/C (compound 0.1 µM) 106% [middle of 8 runs] | viability, T/C (compound 0.316 µM) 91.7% [middle of 8 runs] | viability, T/C (compound 1 µM) 76.9% [middle of 8 runs]
> 1 µM: IC50 (compound alone, run of 04/24/2023)

CC(C)NCC(C(=O)N1CCN(c2ncnc3c2C(C)CC3O)CC1)c1ccc(Cl)cc1 (stereo not drawn)
inactive: viability, T/C (compound 0.1 µM) 91.8% [middle of 4 runs] | viability, T/C (compound 0.316 µM) 90.2% [middle of 4 runs] | viability, T/C (compound 1 µM) 103% [middle of 4 runs] | viability, T/C (compound 3.16 µM) 99.7% [middle of 4 runs]
> 10 µM: IC50 (curve of compound)

C#Cc1c(F)ccc2cc(O)cc(-c3ncc4c(N5CC6CCC(C5)N6)nc(OCC56CCCN5CC(F)C6)nc4c3F)c12 (stereo not drawn)
> 10 µM: IC50 (curve of compound)
inactive: viability, T/C (compound 0.0316 µM) 109% [middle of 4 runs] | viability, T/C (compound 0.316 µM) 106% (2×) and 90.2% and 116%

CC(C)n1nc(-c2ccc3oc(N)nc3c2)c2c(N)ncnc21
inactive: viability, T/C (compound 0.001 µM) 92.3% [middle of 4 runs] | viability, T/C (compound 0.0316 µM) 94.4% [middle of 4 runs] | viability, T/C (compound 0.1 µM) 71.9% [middle of 4 runs]
> 0.1 µM: IC50 (curve of compound)
